Assay results as given in publication PMC4793304 (Bioscience Reports, 2016).
Where two headings read alike, the source gives them in different places.

Columns and labels:
[1] = molecular target: T1, mouse Pgp transporter (Mus musculus, UniProt P21447)
Text: (§1) Because of the complexity of the model shown in Figure 6A, the kinetics curves in Figures 6B and 6C were fit using the COPASI software package.

[2] = system: human Pgp; conditions: read-out: Km for ATPase activation; Caco-2 membrane vesicles containing human Pgp; cited from earlier work
[3] = molecular target: T1, mouse Pgp transporter; test: biochemical
Text: (§2) Drug-induced quenching of protein fluorescence with Pgp reconstituted in liposomes was investigated on an Olis DM 45 spectrofluorimeter (Olis Corp). […] Drug-induced fluorescence quenching was corrected (Fcorrected) for background fluorescence, dilution and inner filter effects with eqn (3) [57]:
3 Fcorrected=F−B10^ɛexbex+ɛembemQ/2
(§3) where F is the measured protein fluorescence, B is the background and [Q] is the quenching ligand concentration. The molar absorption coefficients (ε) for excitation and emission are εex and εem respectively. […] The pathlength (b) along the excitation and emission axes are bex and bem respectively. Drug-induced quenching of protein fluorescence from complexation of the ligand to the protein is known as static quenching, and can be used to estimate the drug's affinity. Drug-induced fluorescence quenching from random collisions with the protein is known as dynamic quenching [57]. Regardless of the nature of the quenching, the fluorescence quenching curves were fit to eqn (4) [57]:
4 Fcorrected=Fcorrected,0/1+KQ
(§4) where Fcorrected,0 is the protein fluorescence in the absence of a quenching ligand and K is the association constant (KA) or the Stern–Volmer quenching constant (KSV) in the case of a static and dynamic quenching processes respectively.

[4] = system: human Pgp from Caco-2 cells; conditions: read-out: Km for digoxin transport; cited from earlier work
[5] = molecular target: T1, mouse Pgp transporter; test: biochemical; remark: listed apart in the source
Text: as §1

[6] = molecular target: T1, mouse Pgp transporter; remark: listed apart in the source
Text: as §2
3 Fcorrected=F−B10^ɛexbex+ɛembemQ/2
as §3
4 Fcorrected=Fcorrected,0/1+KQ
as §4

[7] = molecular target: T1, mouse Pgp transporter; remark: listed apart in the source
[8] = molecular target: T1, mouse Pgp transporter; conditions: proton near the 1,4 β-linkage; 250 μM digoxin, 1 μM Pgp
Experimental: The STDD NMR procedure for membrane proteins was performed as described in [68]. […] The STDD NMR experiments were performed with a double pulsed field gradient spin echo pulse sequence to suppress background water, a 2s train of 50 ms shaped saturation pulses to selectively excite the protein and a total relaxation delay of 5 s [63]. […] Control experiments were performed under identical conditions with liposomes and the drugs. To produce the STDD NMR spectrum, ^1H STD NMR spectrum of liposomes with drugs was subtracted from the ^1H STD NMR spectrum of Pgp reconstituted in liposomes with drugs (ΔI). […] The STDD amplification factor was calculated using the following equation based on the STD amplification factor (eqn 5) [63]:
5 STDDamplificationfactor=L/PΔI/I0
where [P] is the protein concentration and I0 is the amplitude of the ^1H NMR peaks in the absence of saturating pulses.

[9] = molecular target: T1, mouse Pgp transporter; conditions: 250 μM digoxin
Experimental: Control acrylamide titrations were performed in the presence of N-acetyl-L-tryptophanamide (NATA) to estimate the degree of non-specific quenching [55]. Fluorescence intensities were corrected for with eqn (3) [57]. To produce the Stern–Volmer plots, the Fcorrected,0/Fcorrected was plotted as a function of the acrylamide concentration. The degree of dynamic tryptophan quenching was estimated from the slopes of the Stern–Volmer curves, which is related to KSV by Fcorrected,0/Fcorrected = 1 + KSV[Q]

[10] = system: Pgp; conditions: read-out: Km for ATPase activation (implied); CR1R12 cells; maximal activation not reached at 1000 μM digoxin; cited from earlier work
[11] = system: human Pgp; conditions: read-out: Km for ATPase activation; human Pgp-enriched insect cell membranes; cited from earlier work

T1 sequence (P21447 whole entry): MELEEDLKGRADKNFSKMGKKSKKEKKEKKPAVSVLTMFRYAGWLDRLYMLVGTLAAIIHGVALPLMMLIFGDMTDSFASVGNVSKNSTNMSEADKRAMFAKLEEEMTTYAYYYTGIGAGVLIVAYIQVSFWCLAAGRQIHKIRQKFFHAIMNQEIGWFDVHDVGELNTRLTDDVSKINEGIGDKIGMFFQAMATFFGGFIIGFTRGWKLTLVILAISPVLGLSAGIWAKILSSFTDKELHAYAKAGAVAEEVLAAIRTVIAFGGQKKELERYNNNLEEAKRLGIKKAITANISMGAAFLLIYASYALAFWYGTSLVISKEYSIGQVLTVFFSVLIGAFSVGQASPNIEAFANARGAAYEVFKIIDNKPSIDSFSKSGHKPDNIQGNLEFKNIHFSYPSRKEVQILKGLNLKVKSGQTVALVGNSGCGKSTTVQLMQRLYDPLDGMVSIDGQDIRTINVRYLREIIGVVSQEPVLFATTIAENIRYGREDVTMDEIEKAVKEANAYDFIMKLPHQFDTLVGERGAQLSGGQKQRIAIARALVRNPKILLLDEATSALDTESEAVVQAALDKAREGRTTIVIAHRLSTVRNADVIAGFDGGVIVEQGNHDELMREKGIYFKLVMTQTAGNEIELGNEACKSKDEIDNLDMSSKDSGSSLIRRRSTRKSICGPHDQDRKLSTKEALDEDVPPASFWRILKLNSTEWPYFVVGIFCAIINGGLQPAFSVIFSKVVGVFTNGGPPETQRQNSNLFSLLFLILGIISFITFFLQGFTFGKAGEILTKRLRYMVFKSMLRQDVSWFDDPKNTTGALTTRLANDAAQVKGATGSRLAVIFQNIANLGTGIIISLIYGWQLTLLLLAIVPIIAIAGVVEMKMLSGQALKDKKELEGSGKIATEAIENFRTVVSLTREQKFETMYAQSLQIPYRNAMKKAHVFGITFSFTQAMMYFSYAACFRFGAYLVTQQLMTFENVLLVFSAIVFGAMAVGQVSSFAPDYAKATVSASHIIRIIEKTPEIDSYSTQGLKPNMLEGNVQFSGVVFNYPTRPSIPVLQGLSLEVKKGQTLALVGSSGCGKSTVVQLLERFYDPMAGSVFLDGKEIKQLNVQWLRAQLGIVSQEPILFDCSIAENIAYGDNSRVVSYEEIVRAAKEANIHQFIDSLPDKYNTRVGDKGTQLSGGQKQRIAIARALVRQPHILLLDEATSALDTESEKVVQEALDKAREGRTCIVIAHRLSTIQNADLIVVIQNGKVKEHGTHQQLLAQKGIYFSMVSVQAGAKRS

Q: What does the source list for C[C@H]1O[C@@H](O[C@H]2[C@@H](O)C[C@H](O[C@H]3[C@@H](O)C[C@H](O[C@H]4CC[C@@]5(C)[C@H](CC[C@@H]6[C@@H]5C[C@@H](O)[C@]5(C)[C@@H](C7=CC(=O)OC7)CC[C@]65O)C4)O[C@@H]3C)O[C@@H]2C)C[C@H](O)[C@@H]1O [digoxin]?
A: average VMAX3 ([1]; average from fitting all curves): 1981 ± 207 nmol/min/mg; VMAX4,5, ATPase activation from simultaneous binding of digoxin and verapamil ([1]; both drugs bound, estimated by fitting with COPASI): 121 ± 139 nmol/min/mg; VMAX3 (digoxin, DDI model) ([1]; in the absence of verapamil): 1983 nmol/min/mg; Km [2]: 1.2 µM; Kd [3]: 100 ± 18 µM; Km [4]: 385 µM; Kd ([5]; KD3 (digoxin, DDI model), in the absence of verapamil): 239 µM; Kd ([5]; KD4, affinity of digoxin to Pgp in the presence of verapamil, estimated indirectly by fitting with COPASI): 292 ± 89 µM; Kd ([5]; average KD3, average from fitting all curves): 206 ± 53 µM; K from fluorescence quenching ([6]; 37°C, no verapamil): 0.0030 ± 0.0008 µM⁻¹; quenching of Pgp fluorescence at saturating digoxin ([6]; excitation 280 nm, emission 333 nm, 25°C): ~10%; maximum Pgp-coupled ATPase activity reached ([7]; 50 nM Pgp in liposomes, verapamil maximum at 8 μM): ~1300 nmol/min/mg; fold activation of ATPase at maximum ([7]; relative to basal activity, verapamil at 8 μM): ~2 fold; VMAX of drug-induced ATP hydrolysis ([7]; verapamil fit to substrate inhibition eqn 2, digoxin fit to Michaelis-Menten eqn 1): 1344 ± 149.8 nmol/min/mg; highest STDD amplification factor [8]: ~8; KSV (acrylamide Stern-Volmer slope of Pgp) [9]: 2.29 ± 0.12 M⁻¹; Km [10]: > 500 µM; Km [11]: 83.7 µM
